{"source": "paper PMC11448502", "about": "“Cryo-EM structures of the human P2X1 receptor reveal subtype-specific architecture and antagonism by supramolecular ligand-binding” (Nature Communications, 2024)", "test_in_all_cases": "NF449 inhibition dose response (IC50), TEVC in oocytes", "assay_type_in_all_cases": "cell-based", "key": {"hP2X1 K309A": {"target": "T1, hP2X1 K309A (Homo sapiens, UniProt P51575, K309A)", "T1 construct": "hP2X1 mRNA that was made from linearized full-length wild-type or mutant pcDNA 3.1x; expressed in transfected cells; host or cells: Xenopus laevis oocytes (mRNA injection)", "T1 sequence (P51575 1-399 K309A)": "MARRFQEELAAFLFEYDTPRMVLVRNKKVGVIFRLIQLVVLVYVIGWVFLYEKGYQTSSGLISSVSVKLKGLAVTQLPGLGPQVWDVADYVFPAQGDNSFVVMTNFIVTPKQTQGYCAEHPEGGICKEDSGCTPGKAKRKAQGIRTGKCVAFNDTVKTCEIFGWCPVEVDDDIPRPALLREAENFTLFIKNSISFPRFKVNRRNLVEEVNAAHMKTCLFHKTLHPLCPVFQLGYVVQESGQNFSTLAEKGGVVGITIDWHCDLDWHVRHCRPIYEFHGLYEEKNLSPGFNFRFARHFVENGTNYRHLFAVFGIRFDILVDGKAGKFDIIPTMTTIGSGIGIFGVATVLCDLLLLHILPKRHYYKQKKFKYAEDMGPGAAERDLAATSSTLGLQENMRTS", "conditions": "for Normalized Current: hP2X1 K309A", "method": "(§1) Oocytes were purchased defolliculated from Ecocyte Bioscience in Barth’s Solution (88 mM NaCl, 1 mM KCl, 0.82 mM MgSO4, 0.33 mM Ca(NO3)2, 0.41 mM CaCl2, 2.4 mM NaHCO3, 5 mM Tris-HCl) supplemented with penicillin (100 U/mL) and streptomycin (100 µg/mL). Xenopus laevis oocytes were then injected with 50 nL of 100 ng/μL hP2X1 mRNA that was made from linearized full-length wild-type or mutant pcDNA 3.1x according to the protocol provided in the mMessage mMachine kit (Invitrogen). Injected oocytes were allowed to express for ~20 hours at 18 °C before recording was performed.\n(§2) Data acquisition was performed using the Oocyte Clamp OC-725C amplifier and pClamp 8.2 software. Buffers were applied using a gravity fed RSC-200 Rapid Solution Changer that flows at ~5 mL/min. All experiments use Sutter filamented glass 10 cm in length with an inner diameter of 0.69 mm and an outer diameter of 1.2 mm to impale oocytes and clamp the holding voltage at −60 mV. Experiments were recorded in buffer containing 10 mM HEPES (pH 7.4), 140 mM NaCl, 5 mM KCl, 2 mM CaCl2, 2 mM MgCl2, and 10 mM glucose.\n(§3) To test a dilution series of an antagonist at discrete concentrations, 10 µM ATP (2 mM ATP for K309A only) was first applied to evoke an initial maximum current. The oocyte was then washed with buffer for one minute, followed by one minute application of an antagonist test-concentration, and concluded by co-application of the same test concentration with 10 µM ATP (2 mM ATP for K309A). The antagonized signal was then normalized against the initial ATP excitatory signal. Each test concentration was performed in triplicate across different oocytes. The data was then fit to a nonlinear regression named “[inhibitor] vs. response – Variable slope (four parameters)” in Prism 9 to produce a sigmoidal curve and afford an IC50 value. Each singular condition was used to generate an average which is reported plus or minus its standard deviation between three discrete trials."}, "hP2X1 N184A": {"target": "T2, hP2X1 N184A (Homo sapiens, UniProt P51575, N184A)", "T2 construct": "hP2X1 mRNA that was made from linearized full-length wild-type or mutant pcDNA 3.1x; expressed in transfected cells; host or cells: Xenopus laevis oocytes (mRNA injection)", "T2 sequence (P51575 1-399 N184A)": "T1 sequence (P51575 1-399 K309A) with N184A, A309K", "conditions": "for Normalized Current: hP2X1 N184A", "method": "as §1, §2, §3"}, "hP2X1 WT": {"target": "T3, hP2X1 WT (Homo sapiens, UniProt P51575)", "T3 construct": "hP2X1 mRNA that was made from linearized full-length wild-type or mutant pcDNA 3.1x; expressed in transfected cells; host or cells: Xenopus laevis oocytes (mRNA injection)", "T3 sequence (P51575 1-399)": "T1 sequence (P51575 1-399 K309A) with A309K", "method": "as §1, §2, §3"}, "hP2X1 R139A": {"target": "T4, hP2X1 R139A (Homo sapiens, UniProt P51575, R139A)", "T4 construct": "hP2X1 mRNA that was made from linearized full-length wild-type or mutant pcDNA 3.1x; expressed in transfected cells; host or cells: Xenopus laevis oocytes (mRNA injection)", "T4 sequence (P51575 1-399 R139A)": "T1 sequence (P51575 1-399 K309A) with R139A, A309K", "method": "as §1, §2, §3"}}, "note": "Numbering of substitutions follows the chain as printed. “And” between values parts separate entries of the source, which are not always exact repeats. Equal values may be shown once."}
{"smiles": "O=C(Nc1cc(C(=O)Nc2ccc(S(=O)(=O)O)cc2S(=O)(=O)O)cc(C(=O)Nc2ccc(S(=O)(=O)O)cc2S(=O)(=O)O)c1)Nc1cc(C(=O)Nc2ccc(S(=O)(=O)O)cc2S(=O)(=O)O)cc(C(=O)Nc2ccc(S(=O)(=O)O)cc2S(=O)(=O)O)c1", "note": "[NF449, 4,4’,4”,4’’’-(carbonylbis(imino-5,1,3-benzenetriylbis(carbonylimino)))tetrakis-benzene-1,3-disulfonic acid]", "values": [{"measurement": "reduction in inhibitory potency (IC50) of NF449", "setting": "hP2X1 K309A; hP2X1 K309A vs wild-type", "value": 5, "unit": "fold"}, {"measurement": "Normalized Current", "setting": "hP2X1 K309A; [NF449] 1.600E-09 M", "value": "0.804 and 0.6904 and 0.632"}, {"measurement": "Normalized Current", "setting": "hP2X1 K309A; [NF449] 3.200E-10 M", "value": "1.021 and 0.9283 and 0.8888"}, {"measurement": "Normalized Current", "setting": "hP2X1 K309A; [NF449] 6.400E-11 M", "value": "1.062 and 1.037 and 0.9009"}, {"measurement": "Normalized Current", "setting": "hP2X1 K309A; [NF449] 8.000E-09 M", "value": "0.3679 and 0.3618 and 0.2758"}, {"measurement": "reduction in inhibitory potency of NF449", "setting": "hP2X1 N184A; hP2X1 N184A vs wild-type", "value": "~ 6 fold"}, {"measurement": "Normalized Current", "setting": "hP2X1 N184A; [NF449] 1.280E-11 M", "value": "1.058 and 0.9967 and 0.9456"}, {"measurement": "Normalized Current", "setting": "hP2X1 N184A; [NF449] 1.600E-09 M", "value": "0.7543 and 0.7296"}, {"measurement": "Normalized Current", "setting": "hP2X1 N184A; [NF449] 3.200E-10 M", "value": "0.9687 and 0.7936 and 0.7686"}, {"measurement": "Normalized Current", "setting": "hP2X1 N184A; [NF449] 4.000E-08 M", "value": "0.04235 and 0.03835 and 0.03234"}, {"measurement": "Normalized Current", "setting": "hP2X1 N184A; [NF449] 6.400E-11 M", "value": "0.9352 and 0.9156 and 0.8436"}, {"measurement": "Normalized Current", "setting": "hP2X1 N184A; [NF449] 8.000E-09 M", "value": "0.4048 and 0.3885 and 0.3164"}, {"measurement": "Normalized Current", "setting": "hP2X1 WT; [NF449] 1.600E-10 M", "value": "0.9675 and 0.945 and 0.9562"}, {"measurement": "Normalized Current", "setting": "hP2X1 WT; [NF449] 3.200E-11 M", "value": "1.007 and 0.9213 and 1.004"}, {"measurement": "Normalized Current", "setting": "hP2X1 WT; [NF449] 6.400E-12 M", "value": "1.049 and 0.9637 and 0.9878"}, {"measurement": "Normalized Current", "setting": "hP2X1 WT; [NF449] 8.000E-10 M", "value": "0.5214 and 0.4548 and 0.5008"}, {"measurement": "Normalized Current", "setting": "hP2X1 R139A; [NF449] 1.600E-09 M", "value": "0.9525 and 0.8503 and 0.8408"}, {"measurement": "Normalized Current", "setting": "hP2X1 R139A; [NF449] 2.000E-07 M", "value": "0.2675 and 0.1529"}, {"measurement": "Normalized Current", "setting": "hP2X1 R139A; [NF449] 3.200E-10 M", "value": "1.089 and 0.9841 and 0.9268"}, {"measurement": "Normalized Current", "setting": "hP2X1 R139A; [NF449] 4.000E-08 M", "value": "0.6975 and 0.6688 and 0.5159"}, {"measurement": "Normalized Current", "setting": "hP2X1 R139A; [NF449] 5.000E-06 M", "value": 0.000000}, {"measurement": "Normalized Current", "setting": "hP2X1 R139A; [NF449] 8.000E-09 M", "value": "0.8121 and 0.8025 and 0.7834"}]}
